# Laboratory results from patent US11723886B2, “Targeting ocular diseases with novel APE1/Ref-1 inhibitors” (Indiana University Research and Technology Corporation, priority 2018, dated 2023).
# How the values were obtained:
# [1] = system: human retinal microvascular endothelial cells (HRECs); test: In vitro cell proliferation assay (alamarBlue), HRECs; type: cell-based; conditions: HREC, read-out: GI50 (median growth inhibition), HRECs
# Method: Cells. Primary human retinal microvascular endothelial cells (HRECs) were obtained from Cell Systems, Inc. (Kirkland, Wash.), while the Rf/6a macacque choroidal endothelial cell line was obtained from ATCC (Manassas, Va.). Cells were maintained as described (Basavarajappa et al., EMBO Mol Med 9:786-801 (2017)), re-ordered at least annually, and regularly assessed for mycoplasma contamination.
# In vitro cell proliferation assay. Endothelial cell proliferation was measured as described previously (Basavarajappa et al., PLoS One 9:e95694 (2014); Basavarajappa et al., EMBO Mol Med 9:786-801 (2017)). Briefly, 2.5×10^3 cells were seeded in 100 μL of growth medium and plated in each well of 96-well clear-bottom black plates and incubated for 24 hours. APX2009, APX2014, or DMSO vehicle (DMSO final concentration=1%) was added, and the plates were incubated for 24-48 hours in 100 μL complete medium at 37° C. and 5% CO2. AlamarBlue reagent (11.1 μL) was added to each well of the plate and 4 hours later fluorescence readings were taken at excitation and emission wavelengths of 560 nm and 590 nm, respectively, using a Synergy H1 plate reader (BioTek, Winooski, Vt.). GI50 was calculated using GraphPad Prism v. 7.0.
# Ref-1 = Ref-1 (Homo sapiens, UniProt P27695); test: Electrophoretic mobility shift assay (redox EMSA), Ref-1-induced AP-1 DNA binding; type: biochemical; conditions: 30 min pre-incubation with purified Ref-1, read-out: IC50 for redox EMSA inhibition
# Method: Electrophoretic mobility shift assays (EMSA). These assays were performed as previously described (Luo et al., Antioxid Redox Signal 10:18531867 (2008); Kelley et al., Antioxid Redox Signal 14:1387-1401 (2011); Su et al., Biochemistry 50:82-92 (2011); Luo et al., Biochemistry 51:695-705 (2012); Zhang et al., Biochemistry 52:2955-2966 (2013)). […] The EMSA assay was performed using the AP-1 target DNA sequence and AP-1 protein.
# [2] = system: laser-induced choroidal neovascularization
# Rf/6a cells = test: Scratch wound cell migration assay, Rf/6a; type: cell-based, macaque
# Method: In vitro cell migration assay. Endothelial cell migration was monitored as described before (Basavarajappa et al., PLoS One 9:e95694 (2014); Basavarajappa et al., EMBO Mol Med 9:786-801 (2017)). Briefly, HRECs and Rf/6a were grown until confluency in 12-well plates. Using a sterile 10-μL micropipette tip, a scratch wound was made across the center of each well and fresh complete media containing DMSO or different concentrations of APX2009 or APX2014 compounds were added to the wells (DMSO final concentration=1%). Wells were imaged via digital brightfield microscopy at different time points, and the number of migrated cells into the scratched area was manually counted.
# NF-κB p65 = NF-κB p65 nuclear translocation assay in TNF-α stimulated HRECs; type: cell-based, human; conditions: 10 ng/ml TNF-α
# Method: NF-κB p65 nuclear translocation assay. The NF-κB nuclear translocation assay was performed by seeding 30,000 HRECs/well on an 8-well chamber slide coated with attachment factors. The cells were grown in EGM-2 medium overnight before treating with indicated concentrations of APX2009 and APX2014, or 10 μM BAY 11-7082 (Sigma, St. Louis, Mo.) as a positive control NF-κB inhibitor. After 17 hours incubation, the media was replaced with EBM-2 (minimal medium) with indicated concentrations of compound or DMSO for 1 hour. The cells were then stimulated with 10 ng/ml TNF-α in EBM-2 for 20 minutes at 37° C. to activate NF-κB. Cells were then fixed in 4% paraformaldehyde and permeabilized using 0.5% Triton X-100 solution prepared in PBS. The cells were incubated with a monoclonal antibody against NF-κB p65 (sc-8008; Santa Cruz, Santa Cruz, Calif.) (1:50) overnight at 4° C., followed by Alexafluor 555 goat anti-mouse secondary antibody (1:2000) for one hour. The cells were counter-stained with Hoechst 33342 for nuclear staining and then mounted using Everbrite hardset mounting medium. The cells were imaged using a Zeiss AxioImager D2 microscope.
# HRECs = test: Matrigel tube formation assay, HRECs; type: cell-based, human; conditions: mid nanomolar concentrations, vs control
# Method: In vitro Matrigel tube formation assay. The ability of HRECs and Rf/6a cells to form tubes in vitro was monitored as described before (Basavarajappa et al., PLoS One 9:e95694 (2014); Basavarajappa et al., EMBO Mol Med 9:786-801 (2017)). Briefly, cells were treated with the indicated concentrations of APX2009 or APX2014 compounds or DMSO for 48 hours and then 1.5×10^4 cells in 100 μL of growth medium containing DMSO or APX compounds were added to each well of a 96-well plate that was pre-coated with 50 μL of Matrigel basement membrane (DMSO final concentration=1%). Digital photographs of each well at different time points were taken to measure the in vitro tube formation using the Angiogenesis Analyzer plugin in ImageJ software (v.1.48; http://image.bio.methods.free.fr/ImageJ/?Angiogenesis-Analyzer-for-ImageJ.html).
# Sequence of Ref-1 (P27695 whole entry): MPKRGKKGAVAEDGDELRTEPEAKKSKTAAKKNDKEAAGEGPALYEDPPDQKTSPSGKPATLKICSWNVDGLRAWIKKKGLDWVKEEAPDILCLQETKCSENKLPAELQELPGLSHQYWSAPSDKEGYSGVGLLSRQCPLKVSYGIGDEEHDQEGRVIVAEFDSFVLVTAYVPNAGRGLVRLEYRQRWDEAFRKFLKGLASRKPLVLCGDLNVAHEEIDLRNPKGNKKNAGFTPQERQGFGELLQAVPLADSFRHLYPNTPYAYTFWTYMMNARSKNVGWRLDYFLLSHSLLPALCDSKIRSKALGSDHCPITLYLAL
SMILES,GI50 [1] [nM],IC50 (Ref-1) [nM],L-CNV on systemic administration (summary statement) [2],"cell migration in scratch wound assay, Rf/6a (Rf/6a cells)",translocation of p65 into the nucleus in response to TNF-α (NF-κB p65),"ability to form tubes, HRECs (HRECs)","fluorescein leakage in lesions (fluorescein angiography) ([2]; 25 mg/kg i.p., Day 14)",intraocular or systemic toxicity in vivo ([2]; i.p. dosing in L-CNV mice),"effect on L-CNV ([2]; i.p., 12.5 mg/kg twice daily for two weeks)"
"CCC/C(=C\C1=C(OC)C(=O)c2ccccc2C1=O)C(=O)NOC [APX2014, (2E)-2-[(3-methoxy-1,4-dioxo-1,4-dihydronapthalen-2-yl)methylidene]-N-methoxypentanamide]",110,200,can attenuate L-CNV,significantly inhibited,dose-dependently attenuated,significantly reduced,–,–,–
"CCC/C(=C\C1=C(OC)C(=O)c2ccccc2C1=O)C(=O)N(CC)CC [APX2009, (2E)-2-[(3-methoxy-1,4-dioxo-1,4-dihydronaphthalen-2-yl)methylidene]-N,N-diethylpentanamide]",1100,450,can attenuate L-CNV,significantly inhibited,dose-dependently attenuated,significantly reduced,qualitatively less fluorescein leakage,not observed obvious intraocular or systemic toxicity,did not reduce L-CNV
